According to PMC8151276, “An Integrated Approach toward NanoBRET Tracers for Analysis of GPCR Ligand Engagement” (Molecules, 2021):

Key:
Format in all cases: binding
PTGDR = target: T1, PTGDR (Homo sapiens, UniProt Q13258); assay: NanoBRET screen HiBiT-PTGDR in HEK293
T1 construct: purchased Promega (in-house HiBiT-GPCR construct library, NanoBRET)
T1 sequence (Q13258 1-359): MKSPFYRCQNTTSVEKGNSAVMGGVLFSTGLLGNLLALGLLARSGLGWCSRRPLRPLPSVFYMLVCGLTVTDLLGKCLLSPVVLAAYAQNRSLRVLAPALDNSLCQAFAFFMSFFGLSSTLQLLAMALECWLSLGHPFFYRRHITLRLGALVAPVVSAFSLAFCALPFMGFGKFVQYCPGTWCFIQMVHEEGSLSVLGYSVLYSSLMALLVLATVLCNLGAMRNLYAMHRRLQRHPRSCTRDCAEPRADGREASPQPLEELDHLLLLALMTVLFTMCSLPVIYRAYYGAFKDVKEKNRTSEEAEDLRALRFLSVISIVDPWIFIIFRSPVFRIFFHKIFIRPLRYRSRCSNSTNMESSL
Experimental: (§1) Each tracer candidate was screened across the entire library of HiBiT-GPCR constructs using NanoBRET as the detection modality. As depicted in Figure 4A, the specificity of interactions was evaluated through decrease in BRET due to competitive displacement of a bound tracer by excess parental compound. Each tracer was analyzed for binding to each HiBiT-GPCR fusion in the absence and in the presence of competing parental compound. Briefly, HEK293 cells were transfected with HiBiT-GPCR constructs diluted into promoterless DNA to reduce expression and maximize translocation to the cell surface. Each tracer candidate was then screened at concentrations of 1 μM and 0.1 μM across cells expressing these fusions. Cells were treated for 1.5 h with tracer either alone or in the presence of 20 μM competing parental compound (i.e., control). BRET was measured upon addition of purified LgBiT and subsequent complementation with HiBiT genetically fused to a GPCR. The specificity of interactions was assessed through a decrease in BRET signal due to competitive displacement of the bound tracer. To further gauge the robustness of these interactions, the fold response over the control (i.e., BRETtracer/BRETcontrol) was calculated. We chose a 1.5-fold response, which translates to ≥7-fold signal over noise as the minimal threshold required to score an interaction as positive. […]. Below we highlight the screening results obtained for our exemplary fluorescent tracers based on Clozapine, Amitriptyline and AZD1283.
(§2) HiBiT-GPCR DNA constructs were diluted in 10 mM Tris pH 8 to a final concentration of 0.01 μg/μL, arrayed in 96-well plates and stored at −20 °C. For transfection, HEK293 cells were suspended in Opti-MEM (without phenol red) supplemented with 2% fetal bovine serum (Seradigm) and 100 units/mL penicillin–streptomycin (Gibco) at a final concentration of 220,000 cells/mL and dispensed into white 96-well plates at 90 μL/well. Subsequent transfections and screens were carried using an Agilent Bravo Automated Liquid Handling Platform. First, the 96-well HiBiT DNA arrays were diluted 25-fold in Opti-MEM (without serum or phenol red) to a final concentration of 0.0004 μg/μL and 20 μL of the diluted DNAs were transferred into new 96-well plates. Next, promoterless carrier DNA (1 μg/μL) was diluted 25-fold (0.04 μg/μL) and then dispensed into the diluted arrays at 20 μL/well. Following brief mixing, Viafect transfection reagent (Promega) diluted 16-fold into Opti-MEM was dispensed into the plates at 40 μL/well. After mixing by pipetting, plates were incubated for 10 min on the pipetting station deck. The DNA-transfection reagent complexes were then added to plates containing cells. To facilitate the screen, 10 μL of DNA-transfection reagent complexes were added in duplicates to the top 4 and bottom 4 rows, resulting in two identical 48-well arrays per plate. Plates with transfected cells were incubated for 18–20 h at 37 °C/5% CO2. A screen of each tracer across the entire library using two different concentrations requires duplicate plates of transfected cells. Depending on the number of tracers being screened, transfections can be scaled up using the same ratios. The next day, for each tracer, four 20× screening solutions in tracer dilution buffer (Promega) were prepared: two duplicates at final concentration of 20 μM and two duplicates at a final concentration of 2 μM. A competing unmodified compound was added to one of each duplicate at a final concentration of 400 μM. The four resulting solutions were diluted 4-fold in Opti-MEM without serum or phenol red to generate 5× solutions (5 µM and 0.5 µM tracer +/− 100 μM competing compound). To screen the library, a BioTek MultiFlo FX liquid dispenser was used to dispense 22.5 µL of tracer solution to the top 4 rows and 22.5 µL tracer + competing compound solution to the 4 bottom rows. Plates were briefly mixed on an orbital shaker and incubated for 1.5 h at room temperature. […]

ADORA1 = target: T2, ADORA1 (Homo sapiens, UniProt P30542); assay: NanoBRET screen HiBiT-ADORA1 in HEK293
T2 construct: purchased Promega (in-house HiBiT-GPCR construct library, NanoBRET)
T2 sequence (P30542 1-326): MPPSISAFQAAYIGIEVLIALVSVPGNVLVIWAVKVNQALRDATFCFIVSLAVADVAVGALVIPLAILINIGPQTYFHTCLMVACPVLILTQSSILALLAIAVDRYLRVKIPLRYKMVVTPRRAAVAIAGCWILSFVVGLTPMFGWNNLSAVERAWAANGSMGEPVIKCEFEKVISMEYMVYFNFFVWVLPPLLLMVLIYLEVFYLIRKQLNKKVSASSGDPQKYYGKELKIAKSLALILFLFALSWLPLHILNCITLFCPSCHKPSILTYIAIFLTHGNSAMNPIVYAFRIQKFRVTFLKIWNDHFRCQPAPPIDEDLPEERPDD
Experimental: as §1, §2

BRS3 = target: T3, BRS3 (Homo sapiens, UniProt P32247); assay: NanoBRET screen HiBiT-BRS3 in HEK293
T3 construct: purchased Promega (in-house HiBiT-GPCR construct library, NanoBRET)
T3 sequence (P32247 1-399): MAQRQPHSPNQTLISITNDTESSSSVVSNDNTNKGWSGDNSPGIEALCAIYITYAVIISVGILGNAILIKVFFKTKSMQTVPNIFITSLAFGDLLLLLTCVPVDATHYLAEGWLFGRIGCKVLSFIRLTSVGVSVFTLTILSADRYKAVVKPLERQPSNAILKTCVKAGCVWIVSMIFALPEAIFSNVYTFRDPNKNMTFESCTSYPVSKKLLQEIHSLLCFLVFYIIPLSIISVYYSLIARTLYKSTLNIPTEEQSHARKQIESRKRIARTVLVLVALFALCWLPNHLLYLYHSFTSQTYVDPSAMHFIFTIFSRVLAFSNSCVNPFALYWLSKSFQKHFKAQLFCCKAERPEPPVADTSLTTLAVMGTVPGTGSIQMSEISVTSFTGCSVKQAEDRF
Experimental: as §1, §2

[1] = tracer at 1μM, listed as amitriptyline-b-2-NB590

## CCOC(=O)c1cc(C#N)c(N2CCC(C(=O)NS(=O)(=O)Cc3ccccc3/C=C/C(=O)NCCNC(=O)CCc3ccc4n3[B-](F)(F)[N+]3=C(c5ccc[nH]5)C=CC3=C4)CC2)nc1C [AZD1283-1-NB590]
PTGDR; PTGDR, 0.1μM
  NanoBRET Fold Response: 1.42
PTGDR; PTGDR, 1μM
  NanoBRET Fold Response: 1.19
ADORA1; ADORA1, 0.1μM
  NanoBRET Fold Response: 1.18
ADORA1; ADORA1, 1μM
  NanoBRET Fold Response: 1.07
BRS3; BRS3, 0.1μM
  NanoBRET Fold Response: 1.10
BRS3; BRS3, 1μM
  NanoBRET Fold Response: 1.02

## N#CN=C(NCCCOc1cccc(CN2CCCCC2)c1)NCCNC(=O)CCOCCOCCOCCOCCNC(=O)CCc1ccc2n1[B-](F)(F)[N+]1=C(c3ccc[nH]3)C=CC1=C2 [Aminopotentidine-2-NB590]
PTGDR; PTGDR, tracer 0.1μM
  NanoBRET Fold Response: 0.99
PTGDR; PTGDR, tracer 1μM
  NanoBRET Fold Response: 0.79
ADORA1; ADORA1, tracer 0.1μM
  NanoBRET Fold Response: 1.04
ADORA1; ADORA1, tracer 1μM
  NanoBRET Fold Response: 1.01
BRS3; BRS3, tracer 0.1μM
  NanoBRET Fold Response: 1.02
BRS3; BRS3, tracer 1μM
  NanoBRET Fold Response: 1.00

## CN(C)CCC=C1c2ccccc2CCc2ccc(C(=O)NCCNC(=O)CCOCCOCCOCCOCCNC(=O)CCc3ccc4n3[B-](F)(F)[N+]3=C(c5ccc[nH]5)C=CC3=C4)cc21 [Amitriptyline-a-2-NB590]
ADORA1; tracer at 0.1μM
  NanoBRET Fold Response: 1.11
ADORA1; tracer at 1μM
  NanoBRET Fold Response: 1.02
BRS3; tracer at 0.1μM
  NanoBRET Fold Response: 1.02
BRS3; tracer at 1μM
  NanoBRET Fold Response: 0.99

## CN(C)CCC=C1c2ccccc2CCc2ccc(C(=O)NCCNC(=O)CCOCCOCCOCCOCCNC(=O)CCc3ccc4n3[B-](F)(F)[N+]3=C(c5ccc[nH]5)C=CC3=C4)cc21 [Amitriptyline-b-2-NB590]
PTGDR; tracer at 1μM
  NanoBRET Fold Response: 1.03
ADORA1; [1]
  NanoBRET Fold Response: 1.01
BRS3; tracer at 0.1μM
  NanoBRET Fold Response: 0.92
BRS3; [1]
  NanoBRET Fold Response: 1.07

## CN(CCC=C1c2ccccc2CCc2ccccc21)C(=O)CCOCCOCCOCCOCCNC(=O)CCc1ccc2n1[B-](F)(F)[N+]1=C(c3ccc[nH]3)C=CC1=C2 [Amitriptyline-e-2-NB590]
ADORA1; tracer at 1μM
  NanoBRET Fold Response: 1.08

## COc1ccc2c(n1)c(CCNC(C)=O)cn2CCNC(=O)CCc1ccc2n1[B-](F)(F)[N+]1=C(c3ccc[nH]3)C=CC1=C2 [Azamelatonin-1-NB590]
PTGDR; 0.1μM tracer
  NanoBRET Fold Response: 1.13
PTGDR; 1μM tracer
  NanoBRET Fold Response: 1.18
ADORA1; 0.1μM tracer
  NanoBRET Fold Response: 0.87
ADORA1; 1μM tracer
  NanoBRET Fold Response: 0.95
BRS3; 0.1μM tracer
  NanoBRET Fold Response: 0.95
BRS3; 1μM tracer
  NanoBRET Fold Response: 0.95

## COc1ccc2[nH]c(-c3ccc(CNC(=O)CCOCCOCCOCCOCCNC(=O)CCc4ccc5n4[B-](F)(F)[N+]4=C(c6ccc[nH]6)C=CC4=C5)cc3)c(CCNC(C)=O)c2n1 [AzomelatoninICO9-2-NB590]
PTGDR; 0.1μM tracer
  NanoBRET Fold Response: 1.06
PTGDR; 1μM tracer
  NanoBRET Fold Response: 0.88
ADORA1; 0.1μM tracer
  NanoBRET Fold Response: 0.91
ADORA1; 1μM tracer
  NanoBRET Fold Response: 0.94
BRS3; 0.1μM tracer
  NanoBRET Fold Response: 0.86
BRS3; 1μM tracer
  NanoBRET Fold Response: 0.91
